Assay results reported in paper PMC7118123, “Evidence for functional selectivity in TUDC- and norUDCA-induced signal transduction via α5β1 integrin towards choleresis” (Scientific Reports, 2020).

Target: T1, α5β1 integrin (Homo sapiens, UniProt P05556+P08648)
T1 construct: gene ITGA5; soluble human α5β1-integrin (R&D); with integrin α5 (ITGA5, P08648)
Test: competitive ELISA-like solid-phase binding assay against immobilized fibronectin

IC50 [mM]	SMILES
4.01	C[C@H](CCC(=O)NCCS(=O)(=O)O)[C@H]1CC[C@H]2[C@@H]3[C@@H](O)C[C@@H]4C[C@H](O)CC[C@]4(C)[C@H]3CC[C@]12C [TUDC]
3.93	C[C@H](CC(=O)O)[C@H]1CC[C@H]2[C@@H]3C(O)C[C@@H]4C[C@H](O)CC[C@]4(C)[C@H]3CC[C@]12C (some centres unmarked) [norUDCA]
